Data: the NIST ThermoML archive (doi:10.1021/je800899w)
± gives the expanded uncertainty stated by the source.

Assays:
[1] = refractive index (Na D-line) (dimensionless); details: 298.15 K; 101.33 kPa; Liquid; Standard Abbe refractometry
[2] = 298.15 K, 101.33 kPa, Liquid; for viscosity: Capillary tube (Ostwald / Ubbelohde) method; for mass density: Vibrating tube method
[3] = xn = mol fraction of the nth substance listed; details: 298.15 K, 101.3 kPa, Liquid; for viscosity: Capillary tube (Ostwald / Ubbelohde) method
[4] = refractive index (Na D-line) (dimensionless); xn = mol fraction of the nth substance listed; details: 298.15 K, 101.3 kPa, Liquid, Standard Abbe refractometry

CCCCCCCCn1cc[n+](C)c1.O=S(=O)([N-]S(=O)(=O)C(F)(F)F)C(F)(F)F
refractive index [1]: 1.43298 ± 0.00037
viscosity [2]: 92.51 ± 1.4 mPa·s
mass density [2]: 1320.59 ± 0.5 kg/m3

CCCCCCCCn1cc[n+](C)c1.O=S(=O)([N-]S(=O)(=O)C(F)(F)F)C(F)(F)F + CCO
viscosity ([3]; x2 = 0.0959): 71.28 ± 0.88 mPa·s
viscosity ([3]; x2 = 0.1162): 67.63 ± 0.81 mPa·s
viscosity ([3]; x2 = 0.1935): 55.53 ± 0.61 mPa·s
viscosity ([3]; x2 = 0.2269): 51.54 ± 0.56 mPa·s
viscosity ([3]; x2 = 0.3304): 39.23 ± 0.44 mPa·s
viscosity ([3]; x2 = 0.4164): 29.89 ± 0.34 mPa·s
viscosity ([3]; x2 = 0.5412): 19.92 ± 0.22 mPa·s
viscosity ([3]; x2 = 0.6012): 15.86 ± 0.18 mPa·s
viscosity ([3]; x2 = 0.7033): 10.25 ± 0.11 mPa·s
viscosity ([3]; x2 = 0.8067): 5.83 ± 0.065 mPa·s
viscosity ([3]; x2 = 0.8967): 3.079 ± 0.035 mPa·s
mass density ([3]; x2 = 0.0959): 1311.29 ± 1.5 kg/m3
mass density ([3]; x2 = 0.1162): 1309.17 ± 1.5 kg/m3
mass density ([3]; x2 = 0.1935): 1300.29 ± 1.4 kg/m3
mass density ([3]; x2 = 0.2269): 1296.02 ± 1.4 kg/m3
mass density ([3]; x2 = 0.3304): 1280.78 ± 1.3 kg/m3
mass density ([3]; x2 = 0.4164): 1265.19 ± 1.2 kg/m3
mass density ([3]; x2 = 0.5412): 1235.17 ± 1.1 kg/m3
mass density ([3]; x2 = 0.6012): 1216.21 ± 1 kg/m3
mass density ([3]; x2 = 0.7033): 1173.46 ± 0.84 kg/m3
mass density ([3]; x2 = 0.8067): 1106.85 ± 0.62 kg/m3
mass density ([3]; x2 = 0.8967): 1010.5 ± 0.31 kg/m3
refractive index ([4]; x2 = 0.0959): 1.43164 ± 0.00036
refractive index ([4]; x2 = 0.1162): 1.43133 ± 0.00036
refractive index ([4]; x2 = 0.1935): 1.43016 ± 0.00035
refractive index ([4]; x2 = 0.2269): 1.42965 ± 0.00035
refractive index ([4]; x2 = 0.3304): 1.42766 ± 0.00034
refractive index ([4]; x2 = 0.4164): 1.42549 ± 0.00034
refractive index ([4]; x2 = 0.5412): 1.42143 ± 0.00033
refractive index ([4]; x2 = 0.6012): 1.41886 ± 0.00032
refractive index ([4]; x2 = 0.7033): 1.41319 ± 0.00032
refractive index ([4]; x2 = 0.8067): 1.40447 ± 0.00032
refractive index ([4]; x2 = 0.8967): 1.39142 ± 0.00031

CCCCCCCCn1cc[n+](C)c1.O=S(=O)([N-]S(=O)(=O)C(F)(F)F)C(F)(F)F + CCOC(C)=O
viscosity ([3]; x2 = 0.0493): 78.89 ± 1.1 mPa·s
viscosity ([3]; x2 = 0.1112): 65.93 ± 0.78 mPa·s
viscosity ([3]; x2 = 0.1546): 58.25 ± 0.66 mPa·s
viscosity ([3]; x2 = 0.2125): 48.82 ± 0.56 mPa·s
viscosity ([3]; x2 = 0.3102): 34.78 ± 0.4 mPa·s
viscosity ([3]; x2 = 0.404): 24.15 ± 0.27 mPa·s
viscosity ([3]; x2 = 0.4779): 17.54 ± 0.2 mPa·s
viscosity ([3]; x2 = 0.5967): 9.795 ± 0.11 mPa·s
viscosity ([3]; x2 = 0.7035): 5.384 ± 0.062 mPa·s
viscosity ([3]; x2 = 0.8233): 2.284 ± 0.026 mPa·s
viscosity ([3]; x2 = 0.9016): 1.233 ± 0.014 mPa·s
mass density ([3]; x2 = 0.0493): 1314.93 ± 1.6 kg/m3
mass density ([3]; x2 = 0.1112): 1307.34 ± 1.5 kg/m3
mass density ([3]; x2 = 0.1546): 1301.55 ± 1.4 kg/m3
mass density ([3]; x2 = 0.2125): 1293.1 ± 1.4 kg/m3
mass density ([3]; x2 = 0.3102): 1276.6 ± 1.3 kg/m3
mass density ([3]; x2 = 0.404): 1257.53 ± 1.2 kg/m3
mass density ([3]; x2 = 0.4779): 1239.88 ± 1.1 kg/m3
mass density ([3]; x2 = 0.5967): 1203.86 ± 0.97 kg/m3
mass density ([3]; x2 = 0.7035): 1160.22 ± 0.81 kg/m3
mass density ([3]; x2 = 0.8233): 1089.62 ± 0.57 kg/m3
mass density ([3]; x2 = 0.9016): 1022.64 ± 0.35 kg/m3
refractive index ([4]; x2 = 0.0493): 1.43216 ± 0.00037
refractive index ([4]; x2 = 0.1112): 1.43115 ± 0.00036
refractive index ([4]; x2 = 0.1546): 1.43042 ± 0.00036
refractive index ([4]; x2 = 0.2125): 1.4293 ± 0.00035
refractive index ([4]; x2 = 0.3102): 1.42726 ± 0.00035
refractive index ([4]; x2 = 0.404): 1.42453 ± 0.00034
refractive index ([4]; x2 = 0.4779): 1.42219 ± 0.00033
refractive index ([4]; x2 = 0.5967): 1.41721 ± 0.00033
refractive index ([4]; x2 = 0.7035): 1.41123 ± 0.00032
refractive index ([4]; x2 = 0.8233): 1.40097 ± 0.00032
refractive index ([4]; x2 = 0.9016): 1.391 ± 0.00032

CCO [ethanol]
refractive index [1]: 1.35928 ± 0.00031
viscosity [2]: 1.054 ± 0.012 mPa·s

CCOC(C)=O [ethyl acetate]
refractive index [1]: 1.36983 ± 0.00031
viscosity [2]: 0.4256 ± 0.0051 mPa·s
mass density [2]: 894.4 ± 0.1 kg/m3

CCOC(C)=O [ethyl acetate] + CCO
viscosity ([3]; x1 = 0.0941): 0.855 ± 0.01 mPa·s
viscosity ([3]; x1 = 0.1919): 0.692 ± 0.008 mPa·s
viscosity ([3]; x1 = 0.2836): 0.619 ± 0.007 mPa·s
viscosity ([3]; x1 = 0.4044): 0.541 ± 0.006 mPa·s
viscosity ([3]; x1 = 0.5014): 0.505 ± 0.006 mPa·s
viscosity ([3]; x1 = 0.6085): 0.467 ± 0.006 mPa·s
viscosity ([3]; x1 = 0.6949): 0.444 ± 0.005 mPa·s
viscosity ([3]; x1 = 0.7929): 0.436 ± 0.005 mPa·s
viscosity ([3]; x1 = 0.8957): 0.424 ± 0.005 mPa·s
mass density ([3]; x1 = 0.0941): 800.65 ± 0.87 kg/m3
mass density ([3]; x1 = 0.1919): 815.09 ± 0.83 kg/m3
mass density ([3]; x1 = 0.2836): 827.27 ± 0.79 kg/m3
mass density ([3]; x1 = 0.4044): 841.69 ± 0.75 kg/m3
mass density ([3]; x1 = 0.5014): 852.05 ± 0.72 kg/m3
mass density ([3]; x1 = 0.6085): 862.53 ± 0.68 kg/m3
mass density ([3]; x1 = 0.6949): 870.3 ± 0.66 kg/m3
mass density ([3]; x1 = 0.7929): 878.51 ± 0.63 kg/m3
mass density ([3]; x1 = 0.8957): 886.6 ± 0.61 kg/m3
refractive index ([4]; x1 = 0.0941): 1.36064 ± 0.00031
refractive index ([4]; x1 = 0.1919): 1.36193 ± 0.00031
refractive index ([4]; x1 = 0.2836): 1.36309 ± 0.00031
refractive index ([4]; x1 = 0.4044): 1.36447 ± 0.00031
refractive index ([4]; x1 = 0.5014): 1.36548 ± 0.00031
refractive index ([4]; x1 = 0.6085): 1.36649 ± 0.00031
refractive index ([4]; x1 = 0.6949): 1.36724 ± 0.00031
refractive index ([4]; x1 = 0.7929): 1.36811 ± 0.00031
refractive index ([4]; x1 = 0.8957): 1.36895 ± 0.00031
